ChEMBL document CHEMBL1126942, “Synthesis and antibacterial activity of a new series of tetracyclic pyridone carboxylic acids” (J Med Chem, 1993)
In brackets after ≈: the same amount, converted by molar mass.

Tests used:
Format in all cases: functional
[1] = system: Escherichia coli; assay: Tested for inhibitory activity against DNA gyrase supercoiling in Escherichia coli (KL-16)
[2] = system: Escherichia coli; assay: Tested in vitro for antibacterial activity against Escherichia coli (KC-14)
[3] = system: Escherichia coli; assay: Tested in vitro for antibacterial activity agains Escherichia coli (NIHJ JC-2)
[4] = system: Enterococcus faecalis; assay: Tested in vitro for antibacterial activity agains Enterococcus faecalis (IID 682)
[5] = system: Pseudomonas aeruginosa; assay: Tested in vitro for antibacterial activity against Pseudomonas aeruginosa (E-2)
[6] = system: Pseudomonas aeruginosa; assay: Tested in vitro for antibacterial activity against Pseudomonas aeruginosa (IFO 3445)
[7] = system: Staphylococcus epidermidis; assay: Tested in vitro for antibacterial activity against Staphylococcus epidermidis (IAM 1296)
[8] = system: Staphylococcus aureus; assay: Tested in vitro for antibacterial activity against Staphylococcus aureus (FDA 209P JC-1)
[9] = system: Staphylococcus aureus; assay: Tested in vitro for antibacterial activity against Staphylococcus aureus (IID 803)
[10] = system: Klebsiella pneumoniae; assay: Tested in vitro for antibacterial activity against Klebsiella pneumoniae (B54)

Row | IC50 [1] | MIC [2] | MIC [3] | MIC [4] | MIC [5] | MIC [6] | MIC [7] | MIC [8] | MIC [9] | MIC [10] | SMILES
1 | 0.53 µg/mL | 0.78 µg/mL | 0.78 µg/mL | 1.56 µg/mL | 6.25 µg/mL | 6.25 µg/mL | 0.78 µg/mL | 0.78 µg/mL | 0.39 µg/mL | 0.39 µg/mL | CN1CCN(c2c(F)cc3c(=O)c(C(=O)O)c4n5c3c2N(C)CC5CS4)CC1.Cl (stereo unspecified)
2 | 0.33 µg/mL | 0.025 µg/mL | 0.05 µg/mL | 0.78 µg/mL | 1.56 µg/mL | 1.56 µg/mL | 0.2 µg/mL | 0.1 µg/mL | 0.1 µg/mL | 0.05 µg/mL | CN1CCN(c2c(F)cc3c(=O)c(C(=O)O)c4n5c3c2OCC5CS4)CC1.Cl (stereo unspecified)

More lines, now with the values behind:

Row | SMILES | IC50 [1] | MIC [2] | MIC [3] | MIC [4] | MIC [5] | MIC [6] | MIC [7] | MIC [8] | MIC [9] | MIC [10]
3 | CC1COc2c(N3CCN(C)CC3)c(F)cc3c(=O)c(C(=O)O)cn1c23 (stereo unspecified) [OFLOXACIN] | 0.53 µg/mL (≈ 1.47 µM) |  |  |  |  |  |  |  |  | 
4 | CN1CCN(c2c(F)cc3c(=O)c(C(=O)O)c4n5c3c2SCC5CO4)CC1.Cl (stereo unspecified) | 2.61 µg/mL | 1.56 µg/mL | 1.56 µg/mL | 6.25 µg/mL | 60 µg/mL | 50 µg/mL | 6.25 µg/mL | 1.56 µg/mL | 3.13 µg/mL | 1.56 µg/mL
5 | CN1CCN(c2c(F)cc3c(=O)c(C(=O)O)c4n5c3c2C(=O)CC5CS4)CC1.Cl (stereo unspecified) | 0.67 µg/mL | 0.39 µg/mL | 0.78 µg/mL | 3.13 µg/mL | 3.13 µg/mL | 6.25 µg/mL | 3.13 µg/mL | 0.78 µg/mL | 0.78 µg/mL | 0.78 µg/mL
